Assays:
S. aureus 66/1 (MRSA) = assay: Kirby-Bauer disk diffusion; format: cell-based, Staphylococcus aureus; details: 15 μg per disk
Protocol: An initial screening of the antibacterial activity of the compounds was performed by the Kirby-Bauer disk diffusion method, as recommended by the Clinical and Laboratory Standards Institute (CLSI). Briefly, sterile 6 mm blank paper disks (Oxoid, Basingstoke, England) impregnated with 15 μg of each compound were placed on inoculated MH agar plates. A blank disk with dimethylsulfoxide (DMSO) was used as a negative control. MH inoculated plates were incubated for 18-20 h at 37 degrees C. At the end of incubation, the inhibition halos where measured. The MIC was used to determine the antibacterial activity of each compound, in accordance with the recommendations of the CLSI. Two-fold serial dilutions of the compounds were prepared in Mueller-Hinton Broth 2 (MHB2—Sigma-Aldrich, St. Louis, MO, USA) within the concentration range of 0.062-64 μg/mL. CTX ranging between 0.031-16 μg/mL was used as a control. Sterility and growth controls were included in each assay. Purity checks and colony counts of the inoculum suspensions were also performed in order to ensure that the final inoculum density closely approximates the intended number (5×10^5 CFU/mL). The MIC was determined as the lowest concentration of compound that inhibited growth of the bacteria. The MBC was assessed by spreading 10 μL of culture collected from wells showing no visible growth on MH agar plates. […]

C. albicans ATCC 10231 [1] = assay: Germ tube formation; format: cell-based, Candida albicans; details: 3 h
Protocol: The effect of compound 1 in germ tube formation of C. albicans ATCC 10231 was determined as previously described. Briefly, cell suspensions were prepared in NYP medium (N-acetylglucosamine [Sigma, St. Louis, MO, USA; 10-3 mol/L], yeast nitrogen base [Difco, New Jersey, USA; 3.35 g/L], proline [Fluka, Buchs, St. Gallen, Switzerland; 10^−3 mol/L], and NaCl [4.5 g/L], pH 6.7±0.1) and adjusted to a density of (1.0±0.2)×10^6 CFU/mL, as determined by cell counts using a haemocytometer. An appropriate volume of compound stock solution at 10 mg/mL was added to obtain final concentrations ranging between 64 and 8 μg/mL. Filamentation controls were included in each assay with and without 0.64% DMSO. Following a 3 h incubation at 37° C., 100 cells from each sample were counted, using a haemocytometer, and the percentage of germ tubes was determined. Three independent assays were performed.

E. coli ATCC 25922 = assay: Time-kill kinetics; format: cell-based, Escherichia coli
Protocol: The present disclosure relates to antibacterial mechanism of action of the compound 1 herein disclosed. In an embodiment, the evaluation of time-kill kinetics was performed as follows. Time-kill kinetics of compound 1 were evaluated for E. coli ATCC 25922, allowing the confirmation of its bactericidal effect. This is usually determined when ≥99.9% killing of the initial inoculum occurs and is determined by a 3-log10-unit decrease in CFU/mL.
The effect of compound 1 concentrations ranging between 64 and 8 μg/mL was evaluated. The bacterial inoculum was prepared by suspending colonies from overnight cultures (grown in MHA) in CAMHB, and an aliquot of this suspension was added to each tube of CAMHB alone (control) or CAMHB plus an appropriate amount of compound 1, to give an inoculum of approximately 5×10^5 CFU/mL, in a final volume of 10 mL. Tubes were incubated at 37 degrees C. in a water bath with shaking. At predetermined time points (30 min, 1, 1.5, 2, 3, 4, 6, 8, 12, and 24 h), 100 μL aliquots were aseptically removed from each tube, after vortexing, serially diluted in buffered peptone water (Biokar Diagnostics, Allone, Beauvais, France), if necessary, and spread on MHA. Colony counts were determined following overnight incubation at 37 degrees C. and log10 CFU/mL was plotted against time. Three independent experiments were performed.

E. faecalis ATCC 29212 = assay: Bacterial biofilm formation inhibition (crystal violet); format: cell-based, Enterococcus faecalis
Protocol: In an embodiment, the antibiofilm activity of compound 1 was performed as follows. Given its bactericidal effect, the impact of compound 1 on the biofilm formation of reference strains was studied.
The effect of compound 1 on bacterial biofilm formation was evaluated through quantification of total biomass, using the crystal violet method, as previously described ([FIG. 6]). […] A control with an appropriate concentration of DMSO, as well as a negative control (TSB alone) was included. Sterile 96-well flat-bottomed untreated polystyrene microtiter plates were used. After a 24 h incubation at 37 degrees C., the biofilms were heat-fixed for 1 h at 60 degrees C. and stained with 0.5% (v/v) crystal violet (Quimica Clinica Aplicada, Amposta, Spain) for 5 min. The stain was resolubilized with 33% (v/v) acetic acid (Acetic acid 100%, AppliChem, Darmstadt, Germany) and the biofilm biomass was quantified by measuring the absorbance of each sample at 570 nm in a microplate reader (Thermo Scientific Multiskan® EX, Thermo Fisher Scientific, Waltham, MA, USA). The background absorbance (TSB or TSB+1% glucose without inoculum) was subtracted from the absorbance of each sample and the data are presented as a percentage of control. Three independent assays were performed for reference strains, with triplicates for each experimental condition.

C. albicans ATCC 10231 [2] = assay: Propidium iodide influx assay (SYTO 9/PI); format: cell-based, Candida albicans; details: 5 min
Protocol: Influx of PI in C. albicans ATCC 10231 treated with compound 1 was evaluated using a commercial kit, which includes fluorescent nucleic acid stains SYTO™ 9 and PI, and measurements were conducted in a fluorescence microplate reader. […] The ability of PI to penetrate cells with damaged membranes makes it suitable for studying the effect of drugs on cell membranes.
In order to assess membrane integrity by the PI influx assay, a commercial kit was used (LIVE/DEAD® BacLight™ Bacterial Viability Kit, for microscopy & quantitative assays, Invitrogen by Thermo Fisher Scientific, Waltham, MA, USA), which includes fluorescent nucleic acid stains SYTO® 9 and PI. Briefly, C. albicans ATCC 10231 colonies from overnight cultures in SDA were suspended in sterile saline and adjusted to 0.5 McFarland. This suspension was then diluted in RPMI (1:50 followed by 1:20) to achieve a final concentration of 0.5-2.5×10^3 CFU/mL and the tubes were incubated overnight at 36° C. in a water bath with shaking. The following day, the cell suspensions were centrifuged at 3500 rpm for 15 min, the supernatant was removed, and the cells were carefully resuspended in 2 mL of 0.85% NaCl (VWR International, Radnor, PA, USA) prepared in ultrapure water. An aliquot of this suspension was then added to each tube of 0.85% NaCl alone (control) or 0.85% NaCl plus an appropriate amount of test compound, in a 1:10 proportion. […] Fluorescence intensity of the stained yeast suspensions was obtained in a microplate reader (Synergy HT, BioTek Instruments) by two consecutive measurements: with excitation wavelength 485 nm and emission wavelength 528 nm (SYTO® 9) and with excitation wavelength 485 nm and emission wavelength 590 nm (PI). Data were analyzed by subtracting background fluorescence from each sample, dividing fluorescence intensity of SYTO® 9 by fluorescence intensity of PI, and are presented as a percentage of control. […]

E. coli SA/2 (ESBL) = assay: Kirby-Bauer disk diffusion; format: cell-based; details: 15 μg per disk
Protocol: (§1) An initial screening of the antibacterial activity of the compounds was performed by the Kirby-Bauer disk diffusion method, as recommended by the Clinical and Laboratory Standards Institute (CLSI). Briefly, sterile 6 mm blank paper disks (Oxoid, Basingstoke, England) impregnated with 15 μg of each compound were placed on inoculated MH agar plates. A blank disk with dimethylsulfoxide (DMSO) was used as a negative control. MH inoculated plates were incubated for 18-20 h at 37 degrees C. At the end of incubation, the inhibition halos where measured. The MIC was used to determine the antibacterial activity of each compound, in accordance with the recommendations of the CLSI. Two-fold serial dilutions of the compounds were prepared in Mueller-Hinton Broth 2 (MHB2—Sigma-Aldrich, St. Louis, MO, USA) within the concentration range of 0.062-64 μg/mL. CTX ranging between 0.031-16 μg/mL was used as a control. Sterility and growth controls were included in each assay. Purity checks and colony counts of the inoculum suspensions were also performed in order to ensure that the final inoculum density closely approximates the intended number (5×10^5 CFU/mL). The MIC was determined as the lowest concentration of compound that inhibited growth of the bacteria. The MBC was assessed by spreading 10 μL of culture collected from wells showing no visible growth on MH agar plates. […] These assays were performed in duplicate.

[3] = test system: Staphylococcus aureus ATCC 29213; assay: Kirby-Bauer disk diffusion; format: cell-based; details: 15 μg per disk
Protocol: as §1

[4] = test system: Escherichia coli ATCC 25922; assay: Kirby-Bauer disk diffusion; format: cell-based; details: 15 μg per disk
Protocol: as §1

[5] = test system: Pseudomonas aeruginosa ATCC 27853; assay: Kirby-Bauer disk diffusion; format: cell-based; details: 15 μg per disk
Protocol: as §1

With `C[C@H](CCC(=O)NCCN)[C@H]1CC[C@H]2[C@@H]3CC[C@@H]4C[C@H](O)CC[C@]4(C)[C@H]3C[C@H](O)[C@]12C` [Compound 1, (R)—N-(2-aminoethyl)-4-((3R,5R,8R,9S,10S,12S,13R,14S,17R)-3,12-dihydroxy-10,13-dimethylhexadecahydro-1H-cyclopenta[a]phenanthren-17-yl) pentanamida] the Disk diffusion (S. aureus 66/1 (MRSA)) was 11 mm, the “dimorphic transition / germ tube formation (in words)” value (C. albicans ATCC 10231 [1]; 64 μg/mL (MIC)) was “complete inhibition of dimorphic transition” and the “dimorphic transition / germ tube formation (in words)” value (C. albicans ATCC 10231 [1]; 32 and 16 μg/mL (½×MIC and ¼×MIC)) was “significant inhibition”. For the same compound, the “exposure time to bactericidal activity (≥99.9% killing)” value (E. coli ATCC 25922; 64 μg/mL (2×MIC)) was “approximately 1 h”, the “decrease in CFU/mL” value (E. coli ATCC 25922; 64 μg/mL, after 30 min of exposure) was 2 log10-unit and the “type of killing (in words)” value (E. coli ATCC 25922; 64-8 μg/mL) was “concentration-dependent killing”. For the same compound, the “biofilm formation (in words)” value (E. faecalis ATCC 29212; 2×MIC and MIC, 24 h) was “significantly inhibited”, the “minimal biofilm inhibitory concentration (MBIC)” value (E. faecalis ATCC 29212; 80% reduction of biofilm formation, E. faecalis ATCC 29212) was less than 4 µg/mL and the “influx of PI” value (C. albicans ATCC 10231 [2]; 32 μg/mL (½×MIC)) was “no evidence of influx of PI”. For the same compound, the “reduction of SYTO 9/PI ratio vs untreated control” value (C. albicans ATCC 10231 [2]; 128 and 64 μg/mL (2×MIC and MIC)) was “significant”, the Disk diffusion (E. coli SA/2 (ESBL)) was 8 mm and the Disk diffusion [3] was 13 mm. For the same compound, the Disk diffusion [4] was 8 mm and the Disk diffusion [5] was 8 mm.
